The target of this assay is LSD-1 enzyme (Homo sapiens (Human), UniProt O60341). In words: LANCE LSD1/KDM1A demethylase assay (LSD1 histone demethylase biochemical assay). The method, then:
Example A: LSD1 Histone Demethylase Biochemical Assay
LANCE LSD1/KDM1A demethylase assay—10 μL of 1 nM LSD-1 enzyme (ENZO BML-SE544-0050) in the assay buffer (50 mM Tris, pH 7.5, 0.01% Tween-20, 25 mM NaCl, 5 mM DTT) were preincubated for 1 hour at 25° C. with 0.8 μL compound/DMSO dotted in black 384 well polystyrene plates. […] Reactions were stopped by addition of 10 μL 1× LANCE Detection Buffer (PerkinElmer CR97-100) supplemented with 1.5 nM Eu-anti-unmodified H3K4 Antibody (PerkinElmer TRF0404), and 225 nM LANCE Ultra Streptavidin (PerkinElmer TRF102) along with 0.9 mM Tranylcypromine-HCl (Millipore 616431). After stopping the reactions plates were incubated for 30 minutes and read on a PHERAstar FS plate reader (BMG Labtech).

Where [1] appears, read: 1 nM LSD-1 enzyme, 1 hour preincubation at 25° C., Biotin-labeled Histone H3 peptide substrate, read-out: IC50.

SMILES strings stand for the structures. Like-named read-outs stand apart in the source and are kept apart here. Where only a bound is given, the exact number is not on record here.

What is called IC50 is the midpoint of a concentration-inhibition curve.

Consider `CN1CCC[C@@H](COc2nc(-c3ccc(C#N)cc3)c(-c3ccc4c(c3)CC(O)C4)n3ccnc23)C1` (single isomer, unassigned) [78 (peak 1)], for which the IC50 under setting [1] is less than 0.05 µM.
In the case of `CN1CCC[C@@H](COc2nc(-c3ccc(C#N)cc3)c(-c3ccc4c(c3)CC(O)C4)n3ccnc23)C1` (single isomer, unassigned) [78 (peak 2)], the IC50 under setting [1] was less than 0.05 µM.
`Cc1ccc(-c2c(-c3ccc(C#N)cc3)nc(CO[C@@H]3CCNC3)c3nccn23)cc1` [Example 3, 4-(5-(4-methylphenyl)-8-{[(3R)-pyrrolidin-3-yloxy]methyl}imidazo[1,2-a]pyrazin-6-yl)benzonitrile] had an IC50 of 0.05 to 0.5 µM.
Regarding `Cc1ccc(-c2c(-c3ccc(C#N)cc3)nc(CCN3CC[C@@H](N(C)C)C3)c3nccn23)cc1` [Example 6, 4-[8-{2-[(3R)-3-(dimethylamino)pyrrolidin-1-yl]ethyl}-5-(4-methylphenyl)imidazo[1,2-a]pyrazin-6-yl]benzonitrile], the IC50 lay within 0.5 to 1 µM.
The compound `Cc1ccc(-c2c(-c3ccc(C#N)cc3)nc(OCCCN(C)C)c3nccn23)cc1` [Example 8, 4-[8-[3-(dimethylamino)propoxy]-5-(4-methylphenyl)imidazo[1,2-a]pyrazin-6-yl]benzonitrile] gave an IC50 of 0.05 to 0.5 µM.
In turn, `Cc1ccc(-c2c(-c3ccc(C#N)cc3)nc(N(C)CCCN(C)C)c3nccn23)cc1` [Example 15, 4-[8-[[3-(dimethylamino)propyl](methyl)amino]-5-(4-methylphenyl)imidazo[1,2-a]pyrazin-6-yl]benzonitrile] yielded an IC50 of 0.05 to 0.5 µM.
Regarding `Cc1ccc(-c2c(-c3ccc(C#N)cc3)nc(NCCC3CCCN3C)c3nccn23)cc1` (stereo not drawn) [Example 16, 4-(5-(4-methylphenyl)-8-{[2-(1-methylpyrrolidin-2-yl)ethyl]amino}imidazo[1,2-a]pyrazin-6-yl)benzonitrile], the IC50 lay within 0.05 to 0.5 µM.
On to `Cc1ccc(-c2c(-c3ccc(C#N)cc3)nc(NC3CCN(C)CC3)c3nccn23)cc1` [Example 17, 4-{5-(4-methylphenyl)-8-[(1-methylpiperidin-4-yl)amino]imidazo[1,2-a]pyrazin-6-yl}benzonitrile], for which the IC50 was 0.05 to 0.5 µM.
The same measure, in the same setting: for `Cc1ccc(-c2c(-c3ccc(C#N)cc3)nc(N(C)C(=O)N3CC[C@@H](N(C)C)C3)c3nccn23)cc1` [Example 21, (3R)—N-[6-(4-cyanophenyl)-5-(4-methylphenyl)imidazo[1,2-a]pyrazin-8-yl]-3-(dimethylamino)-N-methylpyrrolidine-1-carboxamide] the value was 0.05 to 0.5 µM.
On the same count and under the same terms, for `Cc1ccc(-c2c(-c3ccc(C#N)cc3)nc(N(C)C(=O)N3CC[C@H](N(C)C)C3)c3nccn23)cc1` [Example 22, (3S)—N-[6-(4-cyanophenyl)-5-(4-methylphenyl)imidazo[1,2-a]pyrazin-8-yl]-3-(dimethylamino)-N-methylpyrrolidine-1-carboxamide] the value was 0.5 to 1 µM; for `Cc1ccc(-c2c(-c3ccc(C#N)cc3)nc(NCCc3csc(N)n3)c3nccn23)cc1` [Example 23, 4-[8-{[2-(2-amino-1,3-thiazol-4-yl)ethyl]amino}-5-(4-methylphenyl)imidazo[1,2-a]pyrazin-6-yl]benzonitrile], 0.05 to 0.5 µM; for `Cc1ccc(-c2c(-c3ccc(C#N)cc3)nc(C(=O)NCC3CNC3)c3nccn23)cc1` [Example 24, N-(azetidin-3-ylmethyl)-6-(4-cyanophenyl)-5-(4-methylphenyl)imidazo[1,2-a]pyrazine-8-carboxamide], 0.05 to 0.5 µM.
The same measure, in the same setting: the result for `Cc1ccc(-c2c(-c3ccc(C#N)cc3)nc(C(=O)NC3CN(C)C3)c3nccn23)cc1` [Example 25, 6-(4-cyanophenyl)-N-(1-methylazetidin-3-yl)-5-(4-methylphenyl)imidazo[1,2-a]pyrazine-8-carboxamide] reads 0.05 to 0.5 µM; that for `N#Cc1ccc(-c2nc(OC[C@@H]3CCNC3)c3nccn3c2-c2ccccc2)cc1` [Example 26, 4-{(5-phenyl)-8-[(3R)-pyrrolidin-3-ylmethoxy]imidazo[1,2-a]pyrazin-6-yl}benzonitrile], 0.05 to 0.5 µM.
With `N#Cc1ccc(-c2nc(OC[C@@H]3CCNC3)c3nccn3c2-c2ccc(Cl)cc2)cc1` [Example 27, 4-{5-(4-chlorophenyl)-8-[(3R)-pyrrolidin-3-ylmethoxy]imidazo[1,2-a]pyrazin-6-yl}benzonitrile], the IC50 lay within 0.05 to 0.5 µM.
As to `N#Cc1ccc(-c2nc(OC[C@@H]3CCNC3)c3nccn3c2-c2ccc(C(F)(F)F)cc2)cc1` [Example 28, 4-{8-[(3R)-pyrrolidin-3-ylmethoxy]-5-[4-(trifluoromethyl)phenyl]imidazo[1,2-a]pyrazin-6-yl}benzonitrile], the IC50 was 0.05 to 0.5 µM.
As to `CN(C)c1ncc(-c2c(-c3ccc(C#N)cc3)nc(OC[C@@H]3CCNC3)c3nccn23)cn1` [Example 31, 4-{5-[2-(dimethylamino)pyrimidin-5-yl]-8-[(3R)-pyrrolidin-3-ylmethoxy]imidazo[1,2-a]pyrazin-6-yl}benzonitrile], the IC50 lay in the range of 0.05 to 0.5 µM.
`CN1CC[C@@H](COc2nc(-c3ccc(C#N)cc3)c(-c3ccc(N(C)C)nc3)n3ccnc23)C1` [Example 32, 4-(5-[6-(dimethylamino)pyridin-3-yl]-8-{[(3R)-1-methylpyrrolidin-3-yl]methoxy}imidazo[1,2-a]pyrazin-6-yl)benzonitrile] showed an IC50 of 0.05 to 0.5 µM.
On the same count and under the same terms, for `Cc1ccc(-c2c(-c3ccc(C#N)cc3)nc(OC[C@@H]3CCNC3)c3nc(C(F)(F)F)cn23)cc1` [Example 34, 4-[5-(4-methylphenyl)-8-[(3R)-pyrrolidin-3-ylmethoxy]-2-(trifluoromethyl)imidazo[1,2-a]pyrazin-6-yl]benzonitrile] the value was 0.05 to 0.5 µM; for `Cc1ccc(-c2cn3c(-c4ccc(C)cc4)c(-c4ccc(C#N)cc4)nc(OC[C@@H]4CCNC4)c3n2)cc1` [Example 35, 4-{2,5-bis(4-methylphenyl)-8-[(3R)-pyrrolidin-3-ylmethoxy]imidazo[1,2-a]pyrazin-6-yl}benzonitrile], 0.05 to 0.5 µM; for `CN1CCC[C@@H](COc2nc(-c3ccc(C#N)cc3)c(-c3ccc(N4CCCC4=O)nc3)n3ccnc23)C1` [Example 48, 4-{8-{[(3R)-1-methylpiperidin-3-yl]methoxy}-5-[6-(2-oxopyrrolidin-1-yl)pyridin-3-yl]imidazo[1,2-a]pyrazin-6-yl}benzonitrile], 0.05 to 0.5 µM.
Consider `CN1CCC[C@@H](COc2nc(-c3ccc(C#N)cc3)c(-c3ccc4c(c3)OCC(=O)N4C)n3ccnc23)C1` [Example 49, 4-(5-(4-methyl-3-oxo-3,4-dihydro-2H-1,4-benzoxazin-7-yl)-8-{[(3R)-1-methylpiperidin-3-yl]methoxy}imidazo[1,2-a]pyrazin-6-yl)benzonitrile], for which the IC50 was 0.05 to 0.5 µM.
Still for that read-out and setting: for `CN1CCC[C@@H](COc2nc(-c3ccc(C#N)cc3)c(-c3ccc4c(c3)OCCO4)n3ccnc23)C1` [Example 50, 4-(5-(2,3-dihydro-1,4-benzodioxin-6-yl)-8-{[(3R)-1-methylpiperidin-3-yl]methoxy}imidazo[1,2-a]pyrazin-6-yl)benzonitrile] the value was 0.05 to 0.5 µM; for `CN1CCC[C@@H](COc2nc(-c3ccc(C#N)cc3)c(-c3ccc(N(C)C)nc3)n3ccnc23)C1` [Example 51, 4-(5-[6-(dimethylamino)pyridin-3-yl]-8-{[(3R)-1-methylpiperidin-3-yl]methoxy}imidazo[1,2-a]pyrazin-6-yl)benzonitrile], 0.05 to 0.5 µM.
